Test results: patent publication US20240382484A1, “COMPOSITION FOR TREATING, PREVENTING, OR AMELIORATING MELANOMA AND METHOD THEREOF” (Thomas Jefferson University, priority 2021, published 2024)

Assays:
[1] = system: human NRAS mutant melanoma cell lines; assay: 72 hours drug combination, cell density by IncuCyte, synergy by Combenefit with Loewe method; type: cell-based; settings: for synergy with MEKi (trametinib): WM1361A and WM1366 cells, 72 hours
Protocol: FIG. 10A-10B: Cas9 expressed clone WM1361A-iCas9 #1 (FIG. 10A), and WM1366-iCas9 #11 (FIG. 10B) cells were treated for 72 hours as indicated with GSK2334470 and trametinib and analyzed for cell density by IncuCyte. Synergy graphs were generated utilizing Combenefit Software with Loewe method. Data are represented as the mean from three biological independent experiments.
FIG. 11A: WM1361A, WM1366, SK-MEL-30 and SK-MEL-173 cells were treated for 72 hours as indicated with GSK2334470 and PD0325901 and analyzed for cell density by IncuCyte. Synergy graphs were generated utilizing Combenefit Software with Loewe method. Data are represented as the mean from three biological independent experiments. FIG. 11B: WM1361A, WM1366, SK-MEL-30 or SK-MEL-173 cells were treated with GSK2334470 (PDPK1i) and PD0325901 (PD901) alone or in combination (Comb) at the indicated concentrations for 7 days. Cell growth was monitored by IncuCyte every 2 hours. Data are represented as the mean±SEM of three biological independent experiments. p values were calculated with an unpaired two-tailed t test. n.s., not significant.
FIG. 16A: WM1361A and WM1366 cells were treated for 72 hours with indicated inhibitors and analyzed for cell density by IncuCyte. Synergy graphs were generated utilizing Combenefit Software with Loewe method. Data are represented as the mean from three biological independent experiments.
Human WM1361A and WM1366 melanoma cell lines were cultured in MCDB153 (Sigma) with 2% FBS, 20% Leibowitz L-15 medium, and 5 μg/mL insulin (WM medium). Human SK-MEL-30 and SK-MEL-173 melanoma cell lines were cultured in RPMI-1640 with 10% FBS. […] All cells were cultured at 37° C. in a humidified atmosphere containing 5% CO2. […] Cell lines were STR analyzed, confirmed for NRAS/Nras mutation, and tested to be mycoplasma-free during experiments. For cell proliferation and drug response, cells were monitored by IncuCyte® (Essen Bioscience, Ann Arbor, MI) every 2 hours.

NRAS mutant melanoma = settings: Phase III, NRAS mutant melanoma patients; cited from earlier work
[2] = system: mouse Nras mutant melanoma cell lines; assay: 72 hours drug combination, cell density by IncuCyte, synergy by Combenefit with Loewe method; type: cell-based; settings: two mouse lines (1007 and 1014), 3-day treatment
Protocol: FIG. 2A: NRAS mutant melanoma cell line WM1361A, WM1366, SK-MEL-30, SK-MEL-173, 1007 and 1014 were treated for 72 hours as indicated with GSK2334470 and trametinib and analyzed for cell density by IncuCyte. Synergy graphs were generated utilizing Combenefit Software with Loewe method. Data are represented as the mean from three biological independent experiments. FIG. 2B: WM1361A, WM1366, SK-MEL-30 or SK-MEL-173 cells were treated with GSK2334470 (PDPK1i) and trametinib (tram) alone or in combination (comb) at the indicated concentrations for 7 days. Cell growth was monitored by IncuCyte every 2 hours. Media were replaced twice with drugs during culture. Data are represented as the mean±SEM of three biological independent experiments. p values were calculated with an unpaired two-tailed t test. n.s., not significant.
To further analyze synergistic effects, the growth response of a panel of several NRAS mutant cells to titrated PDPK1i (GSK2334470) and MEKi (trametinib) combinations was assessed.
Human WM1361A and WM1366 melanoma cell lines were cultured in MCDB153 (Sigma) with 2% FBS, 20% Leibowitz L-15 medium, and 5 μg/mL insulin (WM medium). […] Cell lines were STR analyzed, confirmed for NRAS/Nras mutation, and tested to be mycoplasma-free during experiments. For cell proliferation and drug response, cells were monitored by IncuCyte® (Essen Bioscience, Ann Arbor, MI) every 2 hours.

WM1361A-iCas9 #1 cells = assay: Growth inhibition by single agents or combined inhibitors for 3 days, Bliss independence model; type: cell-based, human
Protocol: FIGS. 1A-1H: CRISPR screen identifies PDPK1, in accordance with some embodiments. FIG. 1A: Workflow of the CRISPR-Cas9 screen for genes that are essential for cell survival or act as regulators of trametinib (MEKi) sensitivity and resistance in NRAS mutant melanoma WM1361A-iCas9 #1 cells. FIGS. 1B-1D: WM1361A-iCas9 #1 cells were transduced with the Guide-it CRISPR Genome-Wide sgRNA Library. After 3 days, mCherry positive cells were determined by FACS analysis (FIG. 1). On the 24th day post infection, the cells were treated with 20 nM trametinib for further 14 days (FIG. 1C) or 0.01-0.02 nM trametinib for further 28 days (FIG. 1D). The top enriched or depleted sgRNAs targeted genes are shown. FIG. 1E, The top depleted sgRNAs targeted genes before trametinib treatment. FIG. 1F: WM1361A-iCas9 #1 cells were treated with single agents or combined inhibitors for 3 days. The growth inhibition was shown as observed inhibition (left), or was calculated as Bliss independence model (middle). The synergistic or antagonist effects (right) were calculated as Observed inhibition %−Expected inhibition %. […]
The present study further analyzed druggable essential genes with high STARS scores (>2.14 of NRAS) in WM1361A-iCas9 cells which were also identified as therapeutic targets with high priority scores (>30) in NRAS mutant melanoma SK-MEL-2 cells in a published database. […]

SMILES: COc1ccc(-c2ccc3c(N4CCOC[C@@H]4C)nc(N4CCOC[C@@H]4C)nc3n2)cc1CO [AZD8055]
- synergy with MEKi (trametinib) [1]: reduced synergy and even antagonistic effects

SMILES: Cn1cnc2c(F)c(Nc3ccc(Br)cc3F)c(C(=O)NOCCO)cc21 [Binimetinib, 5-((4-bromo-2-fluorophenyl)amino)-4-fluoro-N-(2-hydroxyethoxy)-1-methyl-1H-benzo[d]imidazole-6-carboxamide]
- progression-free survival over standard chemotherapy (dacarbazine) (NRAS mutant melanoma): modest advantage

SMILES: Cc1nc(-c2cn3c(n2)-c2ccc(-c4cnn(C(C)(C)C(N)=O)c4)cc2OCC3)n(C(C)C)n1 [GDC-0032]
- synergy with MEKi (trametinib) [1]: synergy with trametinib comparable to those with PDPK1i

SMILES: CNc1nc(-c2ccc3c(N)n[nH]c3c2)cc(N2C[C@@H](C(=O)NC3CCCCC3)CC[C@H]2C)n1 [GSK2334470, (3S,6R)-1-[6-(3-Amino-1H-indazol-6-yl)-2-(methylamino)-4-pyrimidinyl]-N-cyclohexyl-6-methyl-3-piperidinecarboxamide]
- synergistic inhibition of cell viability, PDPK1i (GSK2334470) and MEKi (trametinib) combinations ([1]; two Cas9-expressed cell lines and four parental human lines (WM1361A, WM1366, SK-MEL-30, SK-MEL-173), 3-day treatment): Synergistic inhibition
- synergistic inhibition of cell viability, PDPK1i (GSK2334470) and MEKi (trametinib) combinations [2]: Synergistic inhibition
- synergy with MEKi (trametinib) on growth inhibition (WM1361A-iCas9 #1 cells): synergistic

SMILES: Cl.Cl.NC1(c2ccc(-c3nc4ccn5c(=O)[nH]nc5c4cc3-c3ccccc3)cc2)CCC1 [MK-2206 2HCl]
- synergy with MEKi (trametinib) [1]: reduced synergy and even antagonistic effects
